One molecule from BindingDB's records for doi:10.1016/j.ejmech.2022.114789 (Sichuan University, 2022) can be followed below.

This assay deals with T1, Catenin beta-1 (Homo sapiens, UniProt P35222).
T1 sequence (P35222 whole entry): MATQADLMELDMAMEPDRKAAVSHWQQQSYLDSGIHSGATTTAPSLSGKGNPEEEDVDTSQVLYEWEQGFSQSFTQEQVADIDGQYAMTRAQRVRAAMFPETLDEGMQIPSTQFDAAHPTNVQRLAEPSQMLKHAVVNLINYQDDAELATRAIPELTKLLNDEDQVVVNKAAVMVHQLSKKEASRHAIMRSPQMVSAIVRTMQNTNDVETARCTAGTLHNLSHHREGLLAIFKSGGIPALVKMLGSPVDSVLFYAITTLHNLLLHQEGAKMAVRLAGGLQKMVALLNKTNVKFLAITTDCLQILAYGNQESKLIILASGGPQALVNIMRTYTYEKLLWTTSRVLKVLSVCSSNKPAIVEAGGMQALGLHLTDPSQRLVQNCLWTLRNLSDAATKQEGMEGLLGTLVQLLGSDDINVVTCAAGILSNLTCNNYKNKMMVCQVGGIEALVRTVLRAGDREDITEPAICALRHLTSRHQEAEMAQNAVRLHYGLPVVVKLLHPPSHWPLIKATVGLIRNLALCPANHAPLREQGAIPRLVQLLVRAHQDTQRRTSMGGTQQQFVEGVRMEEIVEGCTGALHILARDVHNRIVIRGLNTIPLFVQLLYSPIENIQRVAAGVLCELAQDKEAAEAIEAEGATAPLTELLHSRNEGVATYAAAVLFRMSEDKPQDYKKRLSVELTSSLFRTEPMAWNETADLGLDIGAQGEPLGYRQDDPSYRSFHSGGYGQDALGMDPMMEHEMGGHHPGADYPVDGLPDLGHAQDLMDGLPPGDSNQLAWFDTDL
Description: Inhibition of His6-tagged human beta-Catenin (138 to 686 residues)/biotinylated human BCL9 (350 to 375 residues) protein-protein interaction assessed as inhibition constant by AlphaScreen competitive assay.

What is called Ki is a dissociation constant, usually derived from enzyme kinetics or from competition with a known ligand. Regarding `O=C(Nc1ccc(O[C@H]2CCNC2)c(-c2ccc(F)cc2)c1)c1ccc(O[C@H]2CCNC2)c(-c2ccc(F)c(F)c2)c1`, the inhibition constant (Ki) came to 2100 nM.
